These results are taken from patent US10751329B2, “Treatment of CDKL5 disorders with GSK3β inhibitor tideglusib” (priority 2016, dated 2020).

In assay [1] the test system is CDKL5 KO mice. Conditions: cited from earlier work.
The next assay has as its system GSK3β-dependent targets. Description: Western blot of GSK3β-dependent targets (β-catenin, P-CRMP2 Thr-514, P-CREB Ser-133) in hippocampus, juvenile and adult mice. It is filed as in vivo. The settings on record: juvenile CDKL5 KO mice (treated from P25, P45).
Assay [2] concerns CDKL5 KO mice. Description: Synapse development (SYN and PSD-95 puncta in the DG), juvenile mice. It is filed as in vivo. Conditions: juvenile CDKL5 KO mice (treated from P25, P45). As for the experimental part:
(§1) FIGS. 22A-22B show an experimental protocol for evaluating the effect of NP-12 in juvenile and adult mice. Starting from postnatal day 25 (P25) for juvenile mice (A) or postnatal day 90 (P90) for adult mice (B), Cdkl5^+/Y and Cdkl5^−/Y male mice were treated with vehicle or NP-12, administered by subcutaneous injection every other day for 20 days. Animals were sacrificed after the last injection (on P45 and P110 for juvenile and adult mice, respectively) or were behaviorally tested. Abbreviations: +/Y: wildtype male mice; −/Y: Cdkl5 KO male mice; P, postnatal day.
Values are represented as means±SE. *p<0.05, **p<0.01, ***p<0.001 as compared to the vehicle-treated Cdkl5+/Y condition; #p<0.05; ##p<0.01, ###p<0.001 as compared to the vehicle-treated Cdkl5 −/Y condition (Duncan's test after ANOVA).

Assay [3] deals with CDKL5 KO mice. The assay is described as follows: Hippocampus-dependent learning and memory (Morris water maze, passive avoidance), juvenile and adult mice. The format is in vivo. The settings on record: juvenile CDKL5 KO mice (treated from P25, P45).
Method: Starting from postnatal day 25 (P25) for juvenile mice (A) or postnatal day 90 (P90) for adult mice (B), Cdkl5^+/Y and Cdkl5^−/Y male mice were treated with vehicle or NP-12, administered by subcutaneous injection every other day for 20 days. Animals were sacrificed after the last injection (on P45 and P110 for juvenile and adult mice, respectively) or were behaviorally tested. […] Spatial learning and memory (probe test) assessed with the Morris water maze in vehicle treated and NP-12 treated Cdkl5+/Y and −/Y male mice aged P45 (A) and aged P110 (B). Passive avoidance test (PA) on vehicle treated and NP-12 treated Cdkl5+/Y and −/Y male mice aged P45 (C). Graphs show the latency time to enter the dark compartment on the first day and on the second day of the behavioral procedure. Values are represented as means±SE. *p<0.05, **p<0.01, ***p<0.001 as compared to the vehicle-treated Cdkl5+/Y condition; #p<0.05; ##p<0.01, ###p<0.001 as compared to the vehicle-treated Cdkl5−/Y condition (Duncan's test after ANOVA).
Assay [4] deals with Cdkl5 KO hippocampal neurons. The assay is described as follows: Synaptophysin (SYN) puncta in hippocampal neuronal cultures. The format is cell-based, mice. The settings on record: 1 μM every other day, DIV7 to DIV12.
Method: Immunostaining for cultured hippocampal neurons were performed with the following procedure. Cells were fixed in 4% PFA+4% sucrose in PBS for 20 min and washed five times in PBS. After permeabilization with PBST cells were incubated overnight at 4° C. o/n with the following antibodies: rabbit polyclonal anti-MAP2 (1:100, Millipore) and SYN (SY38) antibody (1:1000, MAB 5258, Merck Millipore). Sections were then incubated for 2 h at room temperature with a FITC-conjugated goat anti-mouse IgG (1:100; Sigma-Aldrich) and a Cy3-conjugated anti-rabbit IgG (1:100, Jackson Immunoresearch).
To develop the cultures the hippocampal neuronal cells were harvested on postnatal day 1, which was considered division 0 (DIV 0) and cultured in vitro for the remainder of the experiment. […] Results are presented as mean±SD. Data were analyzed with Duncan's test after ANOVA. A probability level of p<0.05 was considered to be statistically significant. *P, 0.05, **P<0.01, ***p<0.001 as compared to the untreated wild-type (Cdkl5+/Y) condition; #p<0.05, ##p<0.01 ###p<0.001 as compared to the untreated Cdkl5 KO (−/Y) samples.
Assay [5] has as its system Cdkl5^−/Y mice. The assay is described as follows: Granule cell density, number and layer volume in the dentate gyrus. The format is in vivo. Conditions: 20 mg/kg s.c. every other day from P25, P45.
Assay [6] has as its system hippocampal neurons from Cdkl5 KO mice. The assay is described as follows: Polarization and morphological analysis of MAP2-stained hippocampal neurons. Conditions: Cdkl5 KO hippocampal cultures; 1 μM, DIV10. It is filed as cell-based.
From the text: (C-D) Graphs showing the percentage of polarized neurons (C) and the quantification of the length of the longest axon and dendrite (D) in treated and untreated in hippocampal cultures as in A. (E) Representative images of MAP2-stained hippocampal neurons as in A. Data are expressed as fold difference in comparison to hippocampal neurons from untreated Cdkl5^+/Y mice. Values are represented as means±SD. *p<0.05 as compared to the untreated Cdkl5^+/Y condition; #p<0.05; ##p<0.01 as compared to the untreated Cdkl5^−/Y samples (Duncan's test after ANOVA).
Hippocampal neurons were prepared from postnatal day 1 (P1) Cdkl5^−/Y and Cdkl5^X/Y male mice. […]
To define the degree of polarization of neuronal dendrites, we followed the method described by Horton et al. (FIG. 3) (Horton et al. 2006. Brain Cell. Biol. 35:29-38). Briefly, the measured lengths of dendrites (Lm) in each neuron (including the primary dendrite/axon with all its branches) were ranked highest to lowest. […]
The morphological analysis of hippocampal neurons was focused on two parameters: length of the longest dendrite (D1) and total dendritic length. To achieve this aim, dendritic length of MAP2-positive neurons were measured and quantified by tracing along each neuronal projection using the image analysis system Image Pro Plus (Media Cybernetics, Silver Spring, Md. 20910, USA). […]
For assay [7], the system named is Cdkl5^−/Y mice. Description: Hippocampal connectivity: SYN and PSD-95 immunoreactivity and puncta in the molecular layer of the DG. It is filed as in vivo. The settings on record: 20 mg/kg s.c. every other day from P25, P45. As for the experimental part:
After weaning, mice were housed three to five per cage and were on a 12-hour (h) light/dark cycle in a temperature-controlled environment with food and water provided ad libitum. Starting from postnatal day 25 (P25), Cdkl5^+/Y WT and Cdkl5^−/Y KO male mice were treated with vehicle (corn oil; Sigma-Aldrich) or NP-12 (20 mg/kg; Sigma-Aldrich), administered by subcutaneous injection every other day for 20 days. Animals were sacrificed 4 hours after the last injection on P45.

Assay [8] has as its system CDKL5 KO mice. The assay is described as follows: Neuronal survival and maturation (DCX-positive neurons, dendritic length and branches), juvenile and adult mice. The format is in vivo. Conditions: juvenile CDKL5 KO mice (treated from P25, P45). As for the experimental part:
as §1
FIGS. 25A-25B show the quantification of the number of DCX-positive postmitotic neurons in the dentate gyrus of vehicle treated and NP-12 treated Cdkl5+/Y and −/Y male mice aged P45 (A) and aged P110 (B). Data are expressed as number of cells/100 μm. Values are represented as means±SE. *p<0.05, **p<0.01, ***p<0.001 as compared to the vehicle-treated Cdkl5+/Y condition; #p<0.05; ##p<0.01, ###p<0.001 as compared to the vehicle-treated Cdkl5 −/Y condition (Duncan's test after ANOVA).
FIGS. 26A-26B show the mean total dendritic length and mean number of dendritic branches of newborn granule cells of vehicle treated and NP-12 treated Cdkl5+/Y and −/Y male mice aged P45 (A) and aged P110 (B).

Assay [9] relates to GSK3β Ser9-phosphorylation in hippocampal neurons from Cdkl5 KO mice. Description: Western blot of P-GSK3β-Ser9 in hippocampal neuronal cultures (DIV10). It is filed as cell-based. Conditions: chronic treatment 1 μm from DIV2, DIV10.
Method: Hippocampal cultures were treated with 1 μm NP-12 starting from DIV2. […] Values are represented as means±SD. *p<0.05 as compared to the untreated Cdkl5^+/Y condition; #p<0.05; ##p<0.01 as compared to the untreated Cdkl5^−/Y samples (Duncan's test after ANOVA).
Hippocampal neurons were prepared from postnatal day 1 (P1) Cdkl5^−/Y and Cdkl5^X/Y male mice. Briefly, hippocampi were dissected from mouse brains under a dissection microscope and treated with trypsin (Sigma Aldrich) for 15 min at 37° C. and DNase (Sigma Aldrich) for 2 min at room temperature before triturating mechanically with fire-polished glass pipette to obtain a single-cell suspension. Approximately 1.2×10^5 cells were plated on coverslips coated with poly-1-lysine in 12-well plates and cultures in Neurobasal medium (Invitrogen) supplemented with B27 (Invitrogen) and glutamine (Invitrogen). Cells were maintained in vitro at 37° C. in a 5% CO2-humified incubator and fixed for immunostaining or Western Blot analysis at 10 days after plating (DIV10). 1 μM NP-12 (Sigma) was administrated on alternate days.
For Western Blot analysis hippocampal neurons at DIV10 were lysed in ice-cold RIPA lysis buffer (50 mM Tris-HCl pH 7.4, 150 mM NaCl, 1% Triton-X100, 0.5% sodium deoxycholate, 0.1% SDS) supplemented with 1 mM PMSF and 1% proteases and phosphatases inhibitor cocktail (Sigma). […]
The next assay deals with GSK3β. The assay is described as follows: Western blot of P-GSK3β-Ser9, GSK3β and β-catenin in hippocampal extracts of treated mice. The settings on record: 20 mg/kg s.c. every other day from P25, P45.
The subject of assay [10] is Cdkl5^−/Y mice. Description: Dendritic development of granule cells (DCX and Golgi staining). The format is in vivo. The settings on record: 20 mg/kg s.c. every other day from P25, P45. As for the experimental part: After weaning, mice were housed three to five per cage and were on a 12-hour (h) light/dark cycle in a temperature-controlled environment with food and water provided ad libitum. […] Animals were sacrificed 4 hours after the last injection on P45.

The test system of assay [11] is Cdkl5^−/Y mice. The assay is described as follows: Spine density and morphology of Golgi-stained granule cells. The format is in vivo. The settings on record: 20 mg/kg s.c. every other day from P25, P45.
Method: (B) Images of Golgi-stained dendritic branches of granule cells of untreated and treated Cdkl5^+/Y and Cdkl5^−/Y male mice. […] The day of birth was designed as postnatal day (P) zero (P0) and animals with 24 hours of age were considered as one-day-old animals (P1). After weaning, mice were housed three to five per cage and were on a 12-hour (h) light/dark cycle in a temperature-controlled environment with food and water provided ad libitum. […] Animals were sacrificed 4 hours after the last injection on P45. Brains were Golgi-stained using the FD Rapid Golgi Stain™ Kit (FD NeuroTechnologies, Inc., Columbia, Md., USA). […] In Golgi-stained sections, spines of granule cells were counted using a 100× oil immersion objective lens. Dendritic spine density was measured by manually counting the number of dendritic spines on dendritic segments in the inner and outer half of the molecular layer and expressed as the number of dendritic spines per 20 μm dendritic length. The dendritic spine length was measured by manually drawing a vertical line from the tip of the protrusion to the point where it met the dendritic shaft. The number of spine clusters was counted manually on dendritic segments in the inner and outer half of the molecular layer and expressed as number of spine clusters per 20 μm dendritic length. […] The number of spines belonging to the different group was counted.
Assay [12] has as its system Cdkl5^−/Y mice. Description: Neuronal survival in the dentate gyrus (cleaved caspase-3, DCX immunohistochemistry). The settings on record: 20 mg/kg s.c. every other day from P25, P45. It is filed as in vivo. An excerpt: (B,C) Examples of sections processed for DCX immunostaining from the dentate gyrus (DG) of untreated and treated Cdkl5^+/Y and Cdkl5^−/Y male mice. (C). […] Scale bar=30 μm; type 2b/3 cells and immature neurons were counted separately. (B) Number of DCX-positive type 2b/3 precursor cells and DCX-positive immature neurons in the DG of mice of untreated (+/Y n=3, −/Y n=3) and treated (+/Y n=3, −/Y n=3) Cdkl5 mice. Values in A represent totals for one DG (mean±SD), data in B are expressed as number of cells/100 μm. *p<0.05; **p<0.01 as compared to the untreated Cdkl5^+/Y condition; ##p<0.01; ###p<0.001 as compared to the untreated Cdkl5^−/Y samples (Duncan's test after ANOVA). Abbreviations: GR, granular layer; SGZ, subgranular zone.
The day of birth was designed as postnatal day (P) zero (P0) and animals with 24 hours of age were considered as one-day-old animals (P1). After weaning, mice were housed three to five per cage and were on a 12-hour (h) light/dark cycle in a temperature-controlled environment with food and water provided ad libitum. […]
One out of 6 sections from the hippocampal formation were used for immunohistochemistry for cleaved caspase-3 (1:200, anti-cleaved caspase-3 rabbit polyclonal Ab, Cell Signaling Technology), doublecortin (1:100, anti-DCX goat polyclonal Ab, Santa Cruz Biotechnology), synaptophysin (1:1000, anti-SYN (SY38) mouse monoclonal Ab, MAB 5258, Merck Millipore) and PSD-95 (1:1000, anti-PSD-95 rabbit polyclonal Ab, Abcam) or double fluorescence immunohistochemistry for synaptophysin, and PSD-95. […]
The total number of positive cells in the DG (cleaved caspase-3, DCX) was estimated by multiplying the total number counted in the series of sampled sections by the inverse of the section sampling fraction (ssf=⅙). The total number of cells of each phenotype was estimated by multiplying the number counted in the series of sections by the inverse of the section sampling fraction (ssf=⅙).

Assay [13] relates to Cdkl5^−/Y mice. The assay is described as follows: Passive avoidance (PA) test. It is filed as in vivo. The settings on record: at the end of treatment.
Method: Starting from postnatal day 25 (P25), Cdkl5^+/Y WT and Cdkl5^−/Y KO male mice were treated with vehicle (corn oil; Sigma-Aldrich) or NP-12 (20 mg/kg; Sigma-Aldrich), administered by subcutaneous injection every other day for 20 days. […] For the PA test we used a tilting-floor box (47×18×26 cm) divided into two compartments by a sliding door and a control unit incorporating a shocker (Ugo Basile, Italy). This classic instrument for Pavlovian conditioning exploits the tendency in mice to escape from an illuminated area into a dark one (step-through method). On the first day mice were individually placed into the illuminated compartment. After 60 seconds of habituation period, the connecting door between the chambers opened. In general, mice step quickly through the gate and enter the dark compartment because mice prefer to be in the dark. Upon entering the dark compartment, mice received a brief foot shock (0.7 mA for 3 seconds) and were removed from the chamber after 15 seconds of latency. If the mouse remained in the light compartment for the duration of the trial (358 s), the door closed and the mouse was removed from the light compartment. […] After a 24 hour retention period, mice were placed back into the light compartment and the time it took them to re-enter the dark compartment (latency) was measured up to 358 seconds.

From the text for GSK3β-dependent targets: Data are expressed as percentage of vehicle treated Cdkl5+/Y mice of the same age. Values are represented as means±SE. *p<0.05, **p<0.01, ***p<0.001 as compared to the vehicle-treated Cdkl5 +/Y condition; #p<0.05; ##p<0.01, ###p<0.001 as compared to the vehicle-treated Cdkl5 −/Y condition (Duncan's test after ANOVA).

With `Cn1cc(C2=C(c3ccc(Cl)cc3Cl)C(=O)NC2=O)c2ccccc21` [SB216763], in the assay with CDKL5 KO mice [1], the hippocampal development entry was “restore hippocampal development by restoring dendritic development, spine morphology and distribution, survival of newborn granule cells, and connectivity”.
In the case of `O=c1sn(-c2cccc3ccccc23)c(=O)n1Cc1ccccc1` [NP-12, tideglusib], the “GSK3β-dependent targets (β-catenin, P-CRMP2 Thr-514, P-CREB Ser-133)” value in the assay on GSK3β-dependent targets is “restores GSK3β-dependent targets in juvenile”. For the same compound, the “synapse development (SYN and PSD-95 puncta)” value in the assay on CDKL5 KO mice [2] is reported as “restores synapse development in juvenile CDKL5 KO mice”. The “hippocampus-dependent behavior defects (learning and memory)” value in the assay with CDKL5 KO mice [3] was “corrects hippocampus-dependent behavior defects in juvenile”. Moreover, the “number of synaptophysin (SYN) puncta” value in [4] is “completely restore”. In addition, in the assay with Cdkl5^−/Y mice [5], the “granule cell density in the dentate gyrus” value is on record as “fully restored”, the “total granule cell number in the dentate gyrus” value is listed as “fully restored” and the “volume of the granule cell layer” value was “without affecting the volume of the granule cell layer”. Also, in [6], the “axon and dendrite maturation (length of the longest axon and dendrite)” value was “had positive effects on correct axon and dendrite maturation”; the “percentage of polarized neurons” value is “efficiently ameliorated the percentage of polarized neurons”. Further, in the assay with Cdkl5^−/Y mice [7], the “density of PSD-95 puncta in the molecular layer of the DG” value is listed as “completely restored”, the “density of SYN puncta in the molecular layer of the DG” value is “completely restored”, the “optical density of PSD-95 immunoreactivity in the molecular layer of the DG” value is listed as “fully rescued” and the “optical density of SYN immunoreactivity in the molecular layer of the DG” value is “fully rescued”. Besides, the “neuronal survival and maturation” value with CDKL5 KO mice [8] was “restores neuronal survival and maturation in juvenile”. In addition, the “GSK3β Ser9-phosphorylation” value in assay [9] was “completely restores GSK3β Ser9-phosphorylation”. Also, the “total GSK3β levels in hippocampus” value in the assay with GSK3β is “no effect”. For the same compound, in the assay with GSK3β (Cdkl5^−/Y male mice), the “Ser9-phosphorylated GSK3β levels in hippocampus” value is reported as “increased Ser9-phosphorylated GSK3β levels in Cdkl5^−/Y mice that became even higher to those of the untreated Cdkl5^+/Y counterparts” and the “β-catenin levels in hippocampus” value was “complete recovery of β-catenin levels”. In addition, in the assay on Cdkl5^−/Y mice [10], the “dendritic length of newborn (DCX-positive) granule cells” value is recorded as “increase in both parameters that became similar or even greater than those of untreated Cdkl5^+/Y mice”, the “dendritic length of older Golgi-stained granule cells” value is listed as “completely rescued”, the “number of dendritic branches of newborn (DCX-positive) granule cells” value is on record as “increase in both parameters that became similar or even greater than those of untreated Cdkl5^+/Y mice” and the “number of dendritic segments of older Golgi-stained granule cells” value is given as “completely rescued”. Besides, the “dendritic spine density of granule cells” value in the assay with Cdkl5^−/Y mice [11] is given as “no effect on spine density”. Besides, the “spine shape morphology (percentage of immature and mature spines)” value in the assay on Cdkl5^−/Y mice [11] (Cdkl5 KO mice) is “completely restored”. Also, the “cell death: cleaved caspase-3 positive cells in the dentate gyrus” value in the assay with Cdkl5^−/Y mice [12] (Cdkl5 KO male mice) is on record as “completely restored”. In addition, the “survival rate of the postmitotic granule cells” value with Cdkl5^−/Y mice [12] (Cdkl5^−/Y mice) is listed as “restores the survival rate of the postmitotic granule cells”. Moreover, the “number of DCX-positive immature neurons in the dentate gyrus” value in the assay with Cdkl5^−/Y mice [12] (treated mice vs untreated Cdkl5^+/Y) was “underwent an increase in the number of DCX-positive neurons, that became similar to that of untreated Cdkl5^+/Y littermates”. Further, the “latency time to enter the dark compartment, second day (test)” value in the assay with Cdkl5^−/Y mice [13] (Cdkl5^−/Y mice, 24 hours after shock) is “underwent an increase and there was no significant difference in comparison to untreated Cdkl5^+/Y mice”. Besides, in the assay with Cdkl5^−/Y mice [13] (all groups), the “latency time to enter the dark compartment, first day” value is listed as “all groups showed similar step-through latencies”.
